Results published in article PMC10628242, “Enzymatic β-elimination in natural product O- and C-glycoside deglycosylation” (Nature Communications, 2023).

Target: T1, PuCGE (human intestinal bacterium PUE, UniProt A0A3Q9WUX0+A0A3Q9WXL1, A0A3Q9WUX0:Y39F)
T1 construct: gene dgpC; heterodimer alpha (39,205 Da) + beta (18,313 Da), co-expressed from pET-Duet-1 in E. coli; N-terminal Strep-tag II; Mn2+ enzyme
T1 sequence (A0A3Q9WXL1 1-324): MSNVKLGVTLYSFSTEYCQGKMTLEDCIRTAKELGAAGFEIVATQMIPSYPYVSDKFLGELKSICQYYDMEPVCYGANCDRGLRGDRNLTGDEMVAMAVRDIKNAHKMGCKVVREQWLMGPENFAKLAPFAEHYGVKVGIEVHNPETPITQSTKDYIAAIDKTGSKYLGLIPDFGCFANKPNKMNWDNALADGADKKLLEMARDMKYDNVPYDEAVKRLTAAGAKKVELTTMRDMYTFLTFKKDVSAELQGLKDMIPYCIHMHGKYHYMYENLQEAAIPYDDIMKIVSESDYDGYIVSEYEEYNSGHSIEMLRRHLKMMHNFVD
T1 sequence (A0A3Q9WUX0 1-142 Y39F): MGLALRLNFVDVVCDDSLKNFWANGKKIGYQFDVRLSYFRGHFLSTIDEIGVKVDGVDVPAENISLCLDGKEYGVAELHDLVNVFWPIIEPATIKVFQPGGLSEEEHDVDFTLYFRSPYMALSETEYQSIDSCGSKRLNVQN
Assay: HPLC of aglycone release
Type: biochemical
Conditions: 2.0 mM substrate; potassium phosphate pH 6.0, 37 °C; text puts Tyr39 in beta, plasmid name puts Y39F on alpha

O=C(CCc1ccc(O)cc1)c1c(O)cc(O)cc1O[C@@H]1O[C@H](CO)[C@@H](O)C(=O)[C@H]1O [3-keto-phlorizin, 3,5-dihydroxy-2-[3-(4-hydroxyphenyl)-1-oxopropyl]phenyl β-D-ribo-hexopyranosid-3-ulose]
HPLC of aglycone release: The mutated PuCGE exhibits only a minor loss of 3-keto-phlorizin activity
